Test results reported in US8148368B2, “7-nitro-2-(3-nitro phenyl)-4H-3,1-benzoxazin-4-one or derivatives thereof for treating or preventing antiviral infections” (priority 2010, dated 2012).

Legend:
[1] = system: HCV sub-genomic replicon in FCA-4 cells; assay: Antiviral effect in FCA-4 HCV 1b sub-genomic replicon cells, RT-PCR of HCV RNA; format: cell-based, hepatitis C virus
Excerpt: FCA-4 sub genomic replicon was bicistronic construct composed of the HCV IRES (nucleotides 1 to 377 of the 5′NCR); the neomycin phosphotransferase (neo) gene; the encephalomyocarditis IRES, which mediates the translation of HCV nonstructural proteins NS3 through NS5; and the 3′NCR as shown in FIG. 2. […] FCA-4 sub-genomic replicon consists of single adaptive mutation and a deletion of a serine residue at position 1176 (Guo et al, 2001).
The bicistronic RNA molecule contains the HCV IRES and a few core-coding sequences, which are followed by neomycin phosphotransferase gene (Neor). These sequences are followed by the encephalomyocarditis virus IRES placed in front of HCV sequences encoding nonstructural protein NS3 to NS5B, terminating at the HCV 3NCR.
To determine the antiviral effect against HCV, FCA 4 cells were seeded in six well plates. After 24 h, media containing 20 μM of test compound was added to the plates. Cells were incubated at 37° C. in CO2 incubator for additional 48 h. At the end of the incubation, cells were harvested, RNA was extracted and cDNA were generated by oligo dT priming cDNA was amplified by PCR using primers specific to the 5′ UTR and NS5B gene of HCV. Amplification of GAPDH mRNA served as an internal control.

[2] = system: HCV 3a genotype in MDBK cells; assay: Combination with interferon-α against HCV 3a genotype in MDBK cells, real time quantitative RT-PCR; format: cell-based, hepatitis C virus; details: interferon-α 5 IU/well, 6 hrs pre-incubation, HCV 3a 2×10^4 copies per well, 18 hrs
Description: Surprising synergism was recorded when Compound 1 was combined with Interferon alpha. […] MDBK cells were incubated for 6 hrs with compounds and interferon alone, or combination of compound and interferon in a 96-well plat. After 6 hrs cells were infected with 2×10^4 copies of HCV 3a genotype per well and incubated for additional 18 hrs. At the end of incubation period, total RNA was extracted by Gentra kit, and the levels of HCV RNA remaining were determined, by real time Quantitative RT-PCR assay and are shown as percentage of HCV RNA survival in cells. Results are represented as the average and standard error for three independent experiments.

HCV = details: ribavirin alone; cited from earlier work

SMILES | GAPDH mRNA expression (internal control) ([1]; 20 μM, 48 h, FCA 4 cells) | HCV RNA expression ([1]; 20 μM, 48 h, FCA 4 cells, RT-PCR (5′ UTR and NS5B primers)) | antiviral suppression in relation to cytotoxicity ([1]; FCA4 cells) | concentration showing maximum reduction of HCV expression ([1]; dose dependent, FCA4 sub-genomic replicon, 48 h, FIG. 3) | effect of combination with interferon-α on HCV RNA [2] | patients with serum amino transferase levels reduced to normal (HCV)
O=c1oc(-c2cccc([N+](=O)[O-])c2)nc2cc([N+](=O)[O-])ccc12 [Compound 1, 7-nitro-2-(3-nitrophenyl)-4H-3,1-benzoxazin-4-one] | remains unaffected | inhibited HCV RNA expression significantly | independent of cytotoxicity | 10 µM | synergistic effect | –
NC(=O)c1ncn([C@@H]2O[C@H](CO)[C@@H](O)[C@H]2O)n1 [Ribavirin, 1-β-D-ribofuranosyl-1-1,2,4-triazole-3-carboxamide] | – | – | – | – | – | 40%
